Experimental data taken from US8853230B2, “Inhibitors of JAK” (Portola Pharmaceuticals, Inc., priority 2009, dated 2014).

Columns and labels:
Type in all cases: biochemical
JAK3 = target: T1, JAK3 (Homo sapiens, UniProt P52333); assay: Z'-LYTE kinase assay, JAK3 tyrosine phosphorylation activity
T1 construct: 5 μl of catalytic domain recombinant Kinase enzyme+Tyr peptide substrate (Invitrogen, Calif.); purchased Invitrogen
Description: (§1) JAK and TYK2 tyrosine phosphorylation activity is measured using the Z′-LYTE™ Technology developed by Invitrogen Corporation (Carlsbad, Calif.). For JAK1, JAK2 and JAK3 the Z′-LYTE™ Kinase Assay Kit-Tyr6 Peptide (part number PV4122) was used. For TYK2 the Z′-LYTE™ Kinase Assay Kit-Tyr6 Peptide (part number PV3192) was used. The Z′-LYTE™ biochemical assay employs a fluorescence resonance energy transfer (FRET) coupled-enzyme format and is based on the differential sensitivity of phosphorylated and non-phosphorylated peptides to proteolitic cleavage. The assay uses a synthetic peptide substrate that is labelled with a donor fluorophore (coumarin) and an acceptor fluorophore (fluorescein) that make up a FRET pair. In the primary reaction (the Kinase Reaction), the kinase transfers the γ-phosphate of ATP to a single tyrosine residue on the substrate, while the presence of a kinase inhibitor in the primary reaction suppresses phosphorylation. In the secondary reaction (the Development Reaction), a site-specific protease (the Development Reagent) is added. The development buffer quenches the Kinase Reaction, while the protease recognizes and cleaves non-phosphorylated Z′-LYTE™ peptide substrate. Cleavage disrupts FRET between the donor and acceptor fluorophores on the non-phosphoryleted substrate, while uncleaved, phosphorylated substrate maintains FRET.
(§2) To test the ability of candidate molecules to inhibit JAK tyrosine phosphorylation activity, molecules are reconstituted in 100% DMSO and serially diluted 1:10 in polypropylene v-bottom microtiter plates. The candidate molecules are then diluted 1:25 into kinase buffer and 2.5 μl transferred into duplicate wells of a 384 well low volume black microtiter assay plate (Corning, USA). The final DMSO concentration in the assay is 1%. The kinase reaction contains 2.5 μl of a candidate molecule, 5 μl of catalytic domain recombinant Kinase enzyme+Tyr peptide substrate (Invitrogen, Calif.) and 2.5 μl ATP (Invitrogen, Calif.). The kinase reaction is allowed to procede for 1 hour at room temperature. The protease reaction is initiated by the addition of 5 μl Development Reagent (Invitrogen, Calif.). After 1 hour incubation at room temperature the fluorescence is measured using a FlexStation plate reader (Molecular Devices, Sunnyvale, Calif.). The reader settings used are as follows: Fluorescence mode, endpoint, top read, excitation 400 nm, emission 445 nm and 520 nm, Auto Cutoff 435 nm and 515 nm, PMT sensitivity high, 6 reads per well. Inhibition of JAK activity is calculated as the percent phosphorylation of substrate in the presence of inhibitor compared to the percent phosphorylation of substrate in the absence of inhibitor. IC50's were derived using Xlfit 4.3 (IDBS, UK), 4 parameter logistic model 205: Y=(A+((B−A)/(1+((C/x)^D)))).

JAK2 = target: T2, JAK2 (Homo sapiens, UniProt O60674); assay: Z'-LYTE kinase assay, JAK2 tyrosine phosphorylation activity
T2 construct: 5 μl of catalytic domain recombinant Kinase enzyme+Tyr peptide substrate (Invitrogen, Calif.); purchased Invitrogen
Description: as §1, §2

JAK1 = target: T3, JAK1 (Homo sapiens, UniProt P23458); assay: Z'-LYTE kinase assay, JAK1 tyrosine phosphorylation activity; settings: read-out: JAK 1 IC50
T3 construct: 5 μl of catalytic domain recombinant Kinase enzyme+Tyr peptide substrate (Invitrogen, Calif.); purchased Invitrogen
Description: as §1, §2

T1 sequence (P52333 822-1111 limits assumed): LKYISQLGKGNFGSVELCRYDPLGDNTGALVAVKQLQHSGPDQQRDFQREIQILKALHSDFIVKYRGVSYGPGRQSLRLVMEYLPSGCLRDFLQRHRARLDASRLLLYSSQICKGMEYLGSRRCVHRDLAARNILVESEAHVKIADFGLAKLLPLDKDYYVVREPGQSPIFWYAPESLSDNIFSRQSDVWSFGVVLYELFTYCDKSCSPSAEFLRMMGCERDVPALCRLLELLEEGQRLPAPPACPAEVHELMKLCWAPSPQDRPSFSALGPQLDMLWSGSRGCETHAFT
T2 sequence (O60674 849-1124 limits assumed): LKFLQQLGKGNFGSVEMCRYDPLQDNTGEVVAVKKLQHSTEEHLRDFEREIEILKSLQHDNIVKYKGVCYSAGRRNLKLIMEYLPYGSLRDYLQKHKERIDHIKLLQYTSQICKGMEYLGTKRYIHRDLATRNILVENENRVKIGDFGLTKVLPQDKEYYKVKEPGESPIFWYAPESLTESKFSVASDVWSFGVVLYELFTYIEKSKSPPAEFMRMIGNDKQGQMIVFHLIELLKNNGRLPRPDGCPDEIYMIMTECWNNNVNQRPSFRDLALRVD
T3 sequence (P23458 875-1153 limits assumed): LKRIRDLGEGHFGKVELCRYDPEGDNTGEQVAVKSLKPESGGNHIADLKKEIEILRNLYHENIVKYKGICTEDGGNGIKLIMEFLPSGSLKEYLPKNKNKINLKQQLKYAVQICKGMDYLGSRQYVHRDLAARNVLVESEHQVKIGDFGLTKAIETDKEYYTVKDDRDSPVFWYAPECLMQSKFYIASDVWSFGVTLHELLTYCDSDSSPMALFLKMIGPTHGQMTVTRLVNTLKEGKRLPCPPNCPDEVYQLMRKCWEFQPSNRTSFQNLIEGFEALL

Row | SMILES | IC50 (JAK3) [nM] | IC50 (JAK2) [nM] | IC50 (JAK1) [nM]
1 | NC(=O)c1cnc(Nc2cccc(NC(=O)N3CC[C@@H](O)C3)c2)nc1NCc1ccccc1 [Example 282, (R)-4-(benzylamino)-2-(3-(3-hydroxypyrrolidine-1-carboxamido)phenylamino)pyrimidine-5-carboxamide] | < 1 |  | 
2 | NC(=O)c1cnc(Nc2cccc(NC(=O)N3CC[C@H](F)C3)c2)nc1NCc1ccccc1 [Example 284, (S)-4-(benzylamino)-2-(3-(3-fluoropyrrolidine-1-carboxamido)phenylamino)pyrimidine-5-carboxamide] | < 1 |  | 
3 | CC(=O)Nc1cccc(Nc2ncc(C(N)=O)c(Nc3ccc(NC(=O)CC(F)(F)F)cc3)n2)c1 [Example 303, 2-(3-acetamidophenylamino)-4-(4-(3,3,3-trifluoro-propanamido)phenylamino)pyrimidine-5-carboxamide] | 10 to 100 |  | 
4 | NC(=O)c1cnc(Nc2cccc(NC(=O)N3CC[C@@H](F)C3)c2)nc1NCc1ccccc1 [Example 283, (R)-4-(benzylamino)-2-(3-(3-fluoropyrrolidine-1-carboxamido)phenylamino)pyrimidine-5-carboxamide] | < 1 |  | 
5 | NC(=O)c1cnc(Nc2ccc(F)c(NC(=O)N3CCC3)c2)nc1NCc1ccccc1F [Example 290, 2-(3-(azetidine-1-carboxamido)-4-fluorophenylamino)-4-(2-fluorobenzylamino)pyrimidine-5-carboxamide] | 1 to 10 |  | 
6 | NC(=O)c1cnc(Nc2cccc(NC(=O)c3ccccn3)c2)nc1NCc1ccccc1F [Example 295, 4-(2-fluorobenzylamino)-2-(3-(picolinamido)-phenylamino)pyrimidine-5-carboxamide] | 10 to 100 |  | 
7 | NC(=O)c1cnc(Nc2cccc(NC(=O)Cc3ccccn3)c2)nc1NCc1ccccc1F [Example 300, 4-(2-fluorobenzylamino)-2-(3-(2-(pyridin-2-yl)acetamido)-phenylamino)pyrimidine-5-carboxamide] | < 1 |  | 
8 | NC(=O)c1cnc(Nc2cccc(NC(=O)Cc3ccncc3)c2)nc1NCc1ccccc1F [Example 299, 4-(2-fluorobenzylamino)-2-(3-(2-(pyridin-4-yl)acetamido)-phenylamino)pyrimidine-5-carboxamide] | < 1 |  | 
9 | CC(=O)Nc1cccc(Nc2ncc(C(N)=O)c(Nc3ccc(NC(=O)C4(C#N)CC4)cc3)n2)c1 [Example 302, 2-(3-acetamidophenylamino)-4-(4-(1-cyanocyclopropane-carboxamido)phenylamino)pyrimidine-5-carboxamide] | 10 to 100 |  | 
10 | NC(=O)c1cnc(Nc2cccc(NC(=O)N3CC[C@@H](F)C3)c2)nc1NCc1ccccc1F [Example 289, (R)-4-(2-fluorobenzylamino)-2-(3-(3-fluoropyrrolidine-1-carboxamido)phenylamino)pyrimidine-5-carboxamide] | 10 to 100 |  | 
11 | NC(=O)c1cnc(Nc2cccc(NC(=O)c3cccc(O)n3)c2)nc1NCc1ccccc1F [Example 298, 4-(2-fluorobenzylamino)-2-(3-(6-hydroxypicolinamido)-phenylamino)pyrimidine-5-carboxamide] | 1 to 10 |  | 
12 | NC(=O)c1cnc(Nc2cccc(NC(=O)N3CCCC3)c2)nc1NCC1CCCC1 [Example 281] | 100 to 1000 |  | 
13 | NC(=O)c1cnc(Nc2cccc(NC(=O)c3cccnc3)c2)nc1NCc1ccccc1F [Example 296, 4-(2-fluorobenzylamino)-2-(3-(nicotinamido)-phenylamino)pyrimidine-5-carboxamide] | < 1 |  | 
14 | NC(=O)c1cnc(Nc2cccc(NC(=O)Cc3cccnc3)c2)nc1NCc1ccccc1F [Example 297, 4-(2-fluorobenzylamino)-2-(3-(2-(pyridin-3-yl)acetamido)-phenylamino)pyrimidine-5-carboxamide] | 1 to 10 |  | 
15 | CC(=O)Nc1cccc(Nc2ncc(C(N)=O)c(NCC3CCCC3)n2)c1 [Example 280, 2-(3-acetamidophenylamino)-4-(cyclopentylmethylamino)pyrimidine-5-carboxamide] | < 1 |  | 
16 | NC(=O)c1cnc(Nc2ccc(F)c(NC(=O)N3CCCC3)c2)nc1NCc1ccccc1F [Example 288, 2-(4-fluoro-3-(pyrrolidine-1-carboxamido)phenylamino)-4-(2-fluorobenzylamino)pyrimidine-5-carboxamide] | 1 to 10 |  | 
17 | CC(=O)Nc1cccc(Nc2ncc(C(N)=O)c(Nc3ccc(NC(=O)CC#N)cc3)n2)c1 [Example 301, 2-(3-acetamidophenylamino)-4-(4-(2-cyanoacetamido)-phenylamino)pyrimidine-5-carboxamide] | 1 to 10 |  | 

The next lines start with the values.

Row | IC50 (JAK3) [nM] | IC50 (JAK2) [nM] | IC50 (JAK1) [nM] | SMILES
18 | 10 to 100 | 100 to 1000 | 100 to 1000 | NC(=O)c1cnc(Nc2ccc(F)c(NC(=O)N3CCCC3)c2)cc1NCc1cccc(F)c1 [Example 307]
19 | 1 to 10 | 100 to 1000 | > 1000 | NC(=O)c1cnc(Nc2cccc(NC(=O)N3CCCC3)c2)cc1N[C@H](CO)c1ccccc1 [Example 315, (S)-4-(2-hydroxy-1-phenylethylamino)-6-(3-(pyrrolidine-1-carboxamido)phenylamino)nicotinamide]
20 | 1 to 10 | 100 to 1000 | 100 to 1000 | CC(=O)Nc1cccc(Nc2cc(NCc3cccc(F)c3)c(C(N)=O)cn2)c1 [Example 310, 6-(3-acetamidophenylamino)-4-(3-fluorobenzylamino)nicotinamide]
21 | 1 to 10 | 100 to 1000 | 100 to 1000 | NC(=O)c1cnc(Nc2cccc(NC(=O)N3CCOCC3)c2)cc1N[C@H](CO)c1ccccc1 [Example 314, (S)—N-(3-(5-carbamoyl-4-(2-hydroxy-1-phenylethylamino)pyridin-2-ylamino)phenyl)morpholine-4-carboxamide]
22 | 10 to 100 | 100 to 1000 | 100 to 1000 | CC(=O)Nc1cccc(Nc2cc(NCc3cccnc3)c(C(N)=O)cn2)c1 [Example 321, 6-(3-acetamidophenylamino)-4-(pyridin-3-ylmethylamino)nicotinamide]
23 | 10 to 100 | 100 to 1000 | > 1000 | NC(=O)c1cnc(Nc2cccc(NC(=O)N3CCOCC3)c2)cc1NCc1cccnc1 [Example 319, N-(3-(5-carbamoyl-4-(pyridin-3-ylmethylamino)pyridin-2-ylamino)phenyl)morpholine-4-carboxamide]
24 | 1 to 10 | 100 to 1000 | > 1000 | NC(=O)c1cnc(Nc2ccc(F)c(NC(=O)N3CCC3)c2)cc1N[C@H](CO)c1ccccc1 [Example 311, (S)-6-(3-(azetidine-1-carboxamido)-4-fluorophenylamino)-4-(2-hydroxy-1-phenylethylamino)nicotinamide]
25 | 10 to 100 | 100 to 1000 | > 1000 | CN(C)[C@@H]1CCN(C(=O)Nc2cccc(Nc3cc(NCc4cccnc4)c(C(N)=O)cn3)c2)C1 [Example 318, (R)-6-(3-(3-(dimethylamino)pyrrolidine-1-carboxamido)phenylamino)-4-(pyridin-3-ylmethylamino)nicotinamide]
26 | 10 to 100 | > 1000 | > 1000 | NC(=O)c1cnc(Nc2ccc(F)c(NC(=O)N3CCC3)c2)cc1NCc1cccnc1 [Example 317, 6-(3-(azetidine-1-carboxamido)-4-fluorophenylamino)-4-(pyridin-3-ylmethylamino)nicotinamide]
27 | 10 to 100 | > 1000 | > 1000 | NC(=O)c1cnc(Nc2ccc(F)c(NC(=O)N3CCCC3)c2)cc1NCc1cccnc1 [Example 304, 6-(4-fluoro-3-(pyrrolidine-1-carboxamido)phenylamino)-4-(pyridin-3-ylmethylamino)nicotinamide]
28 | 10 to 100 | 100 to 1000 | 100 to 1000 | CC(=O)Nc1cccc(Nc2cc(N[C@H](CO)c3ccccc3)c(C(N)=O)cn2)c1 [Example 316, (S)-6-(3-acetamidophenylamino)-4-(2-hydroxy-1-phenylethylamino)nicotinamide]
29 | 1 to 10 | 10 to 100 | 100 to 1000 | NC(=O)c1cnc(Nc2cccc(NC(=O)N3CCOCC3)c2)cc1NCc1cccc(F)c1 [Example 308, N-(3-(5-carbamoyl-4-(3-fluorobenzylamino)pyridin-2-ylamino)phenyl)morpholine-4-carboxamide]
